# Reference: ChEMBL document CHEMBL1201862, “PubChem BioAssay data set” (2004)
# Activity calls are given as the source filed them.
# Key:
# [1] = biological target: Delta-type opioid receptor (Homo sapiens, UniProt P41143); test: Counterscreen for agonists of heterodimerization of the mu 1 (OPRM1) and delta 1 (OPRD1) opioid receptors: Luminescence-based cell-based high throughput dose response assay to identify agonists of OPRD1 homodimerization. [Related pubchem assays (depositor defined):AID504326, AID504355, AID504692, AID504904, AID504905]; assay type: functional
# [2] = biological target: Mu-type opioid receptor (Homo sapiens, UniProt P35372); test: Counterscreen for agonists of heterodimerization of the mu 1 (OPRM1) and delta 1 (OPRD1) opioid receptors: Luminescence-based cell-based high throughput dose response assay to identify agonists of OPRM1 homodimerization.; assay type: functional;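 note: U2OS cells expressing OPRM1 and beta-arrestin as split beta-galactosidase partners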
# [3] = biological target: CAAX prenyl protease 2 (Homo sapiens, UniProt Q9Y256); test: human Rce1 protease inhibitors, dose response, biochemical, yeast membranes, quenched-peptide fluorescence, cherry-pick (AID 588849)
# [4] = biological target: 5-hydroxytryptamine receptor 5A (Homo sapiens, UniProt P47898); test: Counterscreen for agonists of OPRM1-OPRD1 heterodimerization: luminescence-based cell-based high throughput dose response assay to identify agonists of 5-hydroxytryptamine (serotonin) 5A receptor (HTR5A). [Related pubchem assays (depositor defined):AID504326, AID504355, AID504692, AID504904, AID504905]; assay type: functional
# [5] = cytotoxicity toward NIH3T3 fibroblasts, dose response, counter-screen, cell-based, ATP luminescence, mouse fibroblasts (AID 2010); assay type: functional;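 note: cells exposed to compound for about 90 hours before reading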
# [6] = inhibitors of intracellular T. cruzi replication, confirmation, NIH3T3 host cells, beta-gal luminescence (AID 2044); assay type: functional, cell-based;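 note: intracellular parasites grown in NIH/3T3 mouse fibroblasts as host cells; luminescent beta-galactosidase reporter signal from transgenic T. cruzi replicating inside host cells; inhibitors lower the luminescence signal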
# [7] = biological target: T1, CAAX prenyl protease 2 (Saccharomyces cerevisiae S288c, UniProt Q03530); assay type: biochemical
# T1 sequence (Q03530 whole entry): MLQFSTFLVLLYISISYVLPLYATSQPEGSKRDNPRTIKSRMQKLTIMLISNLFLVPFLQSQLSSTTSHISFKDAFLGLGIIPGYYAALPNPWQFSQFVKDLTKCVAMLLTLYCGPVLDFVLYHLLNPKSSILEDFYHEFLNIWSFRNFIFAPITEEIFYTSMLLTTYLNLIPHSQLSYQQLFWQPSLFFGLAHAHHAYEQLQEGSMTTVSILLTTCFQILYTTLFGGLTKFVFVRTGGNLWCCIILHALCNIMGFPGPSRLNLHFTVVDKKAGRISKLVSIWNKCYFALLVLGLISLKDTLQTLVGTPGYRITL
# [8] = biological target: Voltage-gated inwardly rectifying potassium channel KCNH2 (Homo sapiens, UniProt Q12809); conditions: Potency;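 note: confirmatory quantitative high-throughput screen measuring inhibition of hERG channel activity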
# [9] = biological target: Phospholipase A2 (Homo sapiens, UniProt P04054); assay type: functional;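 note: confirmatory dose-response counterscreen on phospholipase A2, testing hits that came from an ultra-high-throughput screen for ATG4B inhibitors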
# [10] = biological target: Cysteine protease ATG4B (Homo sapiens, UniProt Q9Y4P1); assay type: functional;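 note: Fluorescence-based dose-response confirmation assay measuring inhibition of ATG4B activity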
# [11] = biological target: Envelope glycoprotein gp160 (Human immunodeficiency virus 1, UniProt Q6QLK5); test: inhibitors of HIV fusion peptide binding, primary screen, biochemical, uHTS, fluorescence dequenching (AID 1986)
# [12] = test system: Vero; test: Vero cell cytotoxicity, cytotoxicity control for flavivirus capping enzyme inhibitors (AID 588742); assay type: functional; conditions: Chlorocebus sabaeus
# [13] = biological target: T2, Short transient receptor potential channel 4 (Mus musculus, UniProt Q9QUQ5); test: mouse TRPC4 channel inhibitors, dose response, cell-based, HEK293 TRPC4/mu-opioid, Fluo-4 calcium (AID 434942); assay type: functional;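 note: potency of inhibitors blocking the TRPC4 calcium response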
# T2 sequence (Q9QUQ5 whole entry): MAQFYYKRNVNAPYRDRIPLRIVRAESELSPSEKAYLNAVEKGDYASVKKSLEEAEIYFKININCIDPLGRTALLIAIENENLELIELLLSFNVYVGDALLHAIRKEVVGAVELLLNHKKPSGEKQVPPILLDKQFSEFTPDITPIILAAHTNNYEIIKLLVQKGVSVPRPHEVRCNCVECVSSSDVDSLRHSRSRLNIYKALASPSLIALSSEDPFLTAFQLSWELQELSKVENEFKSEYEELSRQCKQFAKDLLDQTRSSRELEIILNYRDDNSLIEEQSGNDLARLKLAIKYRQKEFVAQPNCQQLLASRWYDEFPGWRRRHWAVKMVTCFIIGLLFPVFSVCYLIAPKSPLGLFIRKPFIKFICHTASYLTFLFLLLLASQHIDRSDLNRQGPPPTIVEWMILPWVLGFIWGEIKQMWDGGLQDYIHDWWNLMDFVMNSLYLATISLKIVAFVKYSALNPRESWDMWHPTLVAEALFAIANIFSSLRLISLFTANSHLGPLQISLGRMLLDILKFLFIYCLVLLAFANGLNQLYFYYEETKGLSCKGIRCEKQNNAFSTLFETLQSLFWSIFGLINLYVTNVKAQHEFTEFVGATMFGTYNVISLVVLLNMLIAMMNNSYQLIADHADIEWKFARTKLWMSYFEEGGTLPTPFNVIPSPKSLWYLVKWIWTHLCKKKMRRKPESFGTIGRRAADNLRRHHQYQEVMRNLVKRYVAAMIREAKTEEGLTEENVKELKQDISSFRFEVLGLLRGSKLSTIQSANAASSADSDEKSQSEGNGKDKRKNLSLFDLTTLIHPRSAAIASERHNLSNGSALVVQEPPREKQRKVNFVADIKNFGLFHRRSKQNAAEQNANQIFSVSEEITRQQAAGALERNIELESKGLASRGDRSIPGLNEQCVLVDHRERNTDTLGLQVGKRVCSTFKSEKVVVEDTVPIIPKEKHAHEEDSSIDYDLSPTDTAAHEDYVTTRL
# [14] = biological target: Genome polyprotein (dengue virus type 2, UniProt P29990); test: Dengue-2 NS5 methyltransferase inhibitors, primary screen, biochemical, confirmation dose response (AID 588689); assay type: functional
# [15] = NIH-3T3 fibroblast cytotoxicity, dose response, cytotoxicity control, cell-based, fluorescence, Alamar Blue, secondary assay (AID 2327); assay type: functional;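 note: NIH-3T3 mouse fibroblasts cultured with fluconazole at 8 µg/mL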
# [16] = C. albicans growth with fluconazole, confirmation, fluorescence, retest (AID 2467); assay type: functional, cell-based
# [17] = test system: Candida albicans; test: fluconazole resistance reversal in C. albicans, dose response, CaCi-2 strain, Alamar Blue, dry powder, set 4 (AID 488943); assay type: functional, organism-based
# [18] = test system: Candida albicans; test: growth inhibition of azole-resistant C. albicans, dose response, CaCi-8 strain, Alamar Blue, dry powder, set 3 (AID 488905); assay type: functional, organism-based
# [19] = test system: Candida albicans; test: growth inhibition of resistant C. albicans, dose response, CaCi-8 strain, fluconazole, dry powder, set 4 (AID 488950); assay type: functional, organism-based
# [20] = test system: Candida albicans; test: reversal of fluconazole resistance in C. albicans, dose response, CaCi-2 strain, Alamar Blue, dry powder, set 3 (AID 488907); assay type: functional, organism-based
# [21] = biological target: Dual specificity protein phosphatase 3 (Homo sapiens, UniProt P51452); test: SAR VHR1 Fluorescent Assay for In Vitro dose response studies Set 3. [Related pubchem assays (depositor defined):AID1654, AID1661, AID1878]; assay type: functional
# [22] = biological target: T3, Hexokinase HKDC1 (Homo sapiens, UniProt Q2TB90); test: SAR analysis of small molecule inhibitors of hexokinase domain containing I (HKDC1). [Related pubchem assays (depositor defined):AID493160, AID493190]; assay type: functional
# T3 sequence (Q2TB90 whole entry): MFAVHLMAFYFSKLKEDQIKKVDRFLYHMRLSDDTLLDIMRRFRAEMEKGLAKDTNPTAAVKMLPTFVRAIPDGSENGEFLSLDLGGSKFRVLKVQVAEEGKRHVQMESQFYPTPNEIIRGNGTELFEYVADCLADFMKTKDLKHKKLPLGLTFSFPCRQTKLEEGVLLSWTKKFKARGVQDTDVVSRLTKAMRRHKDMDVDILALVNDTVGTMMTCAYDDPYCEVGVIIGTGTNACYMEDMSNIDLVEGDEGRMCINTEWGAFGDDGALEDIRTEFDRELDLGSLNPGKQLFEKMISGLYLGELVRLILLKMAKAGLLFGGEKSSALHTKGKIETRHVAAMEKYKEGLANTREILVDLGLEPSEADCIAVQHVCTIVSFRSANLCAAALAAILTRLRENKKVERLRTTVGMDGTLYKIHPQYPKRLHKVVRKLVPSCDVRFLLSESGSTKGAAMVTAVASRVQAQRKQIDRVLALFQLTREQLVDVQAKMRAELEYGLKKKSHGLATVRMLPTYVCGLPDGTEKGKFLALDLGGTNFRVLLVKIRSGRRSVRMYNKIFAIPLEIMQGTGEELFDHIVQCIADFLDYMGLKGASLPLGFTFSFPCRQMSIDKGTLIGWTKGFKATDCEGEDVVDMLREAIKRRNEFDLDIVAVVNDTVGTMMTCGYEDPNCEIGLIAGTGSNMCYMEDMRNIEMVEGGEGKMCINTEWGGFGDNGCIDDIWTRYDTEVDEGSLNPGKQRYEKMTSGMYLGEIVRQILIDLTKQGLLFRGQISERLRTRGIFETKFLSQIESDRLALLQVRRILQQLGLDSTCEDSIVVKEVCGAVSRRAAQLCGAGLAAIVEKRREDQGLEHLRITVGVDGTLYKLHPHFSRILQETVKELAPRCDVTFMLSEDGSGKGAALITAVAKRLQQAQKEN
# [23] = biological target: Hexokinase-1 (Homo sapiens, UniProt P19367); test: SAR analysis of small molecule inhibitors of hexokinase domain containing I (HKDC1) in the hexokinase 1 selectivity assay. [Related pubchem assays (depositor defined):AID493160, AID493190]; assay type: functional
# [24] = microbe, parasite or virus in culture; assay type: functional; conditions: Mycobacterium tuberculosis
# [25] = biological target: T4, Ubiquitin-conjugating enzyme E2 N (Homo sapiens, UniProt P61088); assay type: functional
# T4 sequence (P61088 whole entry): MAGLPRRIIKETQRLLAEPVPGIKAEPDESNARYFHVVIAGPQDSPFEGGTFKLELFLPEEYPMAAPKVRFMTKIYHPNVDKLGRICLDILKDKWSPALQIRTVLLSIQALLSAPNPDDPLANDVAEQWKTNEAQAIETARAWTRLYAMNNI
# [26] = biological target: T5, Bcl-2-related protein A1 (Mus musculus, UniProt Q07440); assay type: functional;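 note: confirmatory dose–response counterscreen on Bfl-1, used to check hits from a UBC13 polyubiquitin inhibitor campaign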
# T5 sequence (Q07440 whole entry): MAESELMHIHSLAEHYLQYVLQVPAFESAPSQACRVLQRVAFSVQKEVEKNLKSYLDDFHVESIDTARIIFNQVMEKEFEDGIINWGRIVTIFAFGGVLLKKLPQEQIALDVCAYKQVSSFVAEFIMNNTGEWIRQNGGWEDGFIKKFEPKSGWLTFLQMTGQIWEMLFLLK
# [27] = test system: INS1; test: beta cell apoptosis inhibitors, cytokine rescue, dose response, luminescence, retest (AID 449756); assay type: functional, cell-based; conditions: Rattus norvegicus;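 note: cell death triggered by IL-1 beta plus TNF-alpha plus IFN-gamma mixture; protective hits raise ATP signal compared with cytokine alone wells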
# [28] = cytotoxicity in HEK-293T NF-kB-Luc cells, dose response, cytotoxicity control for B/T-cell NF-kB inhibitor project, cell-based, uHTS hits (AID 489019); assay type: functional;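 note: IC50 reflects cytotoxicity as loss of cell viability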
# [29] = biological target: T4, Ubiquitin-conjugating enzyme E2 N; assay type: functional; remark: listed apart in the source
# [30] = test system: Jurkat; test: antigen receptor-induced NF-kB inhibitors, dose response, Jurkat, luciferase reporter, luminescence, B- and T-cell (AID 489004); assay type: functional, cell-based; conditions: Homo sapiens;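 note: NF-kB luciferase reporter Jurkat cells stimulated with PMA plus ionomycin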
# Chain of Delta-type opioid receptor (P41143 whole entry): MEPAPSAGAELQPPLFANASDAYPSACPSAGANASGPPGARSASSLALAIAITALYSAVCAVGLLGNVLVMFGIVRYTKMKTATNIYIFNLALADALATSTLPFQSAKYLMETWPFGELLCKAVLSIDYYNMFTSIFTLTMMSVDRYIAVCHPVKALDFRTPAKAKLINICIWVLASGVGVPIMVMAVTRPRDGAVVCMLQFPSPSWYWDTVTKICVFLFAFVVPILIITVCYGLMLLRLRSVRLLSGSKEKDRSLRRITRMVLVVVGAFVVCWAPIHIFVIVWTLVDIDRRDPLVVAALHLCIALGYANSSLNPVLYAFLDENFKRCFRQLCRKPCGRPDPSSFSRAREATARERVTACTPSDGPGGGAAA
# Chain of CAAX prenyl protease 2 (Homo sapiens, UniProt Q9Y256) (Q9Y256 whole entry): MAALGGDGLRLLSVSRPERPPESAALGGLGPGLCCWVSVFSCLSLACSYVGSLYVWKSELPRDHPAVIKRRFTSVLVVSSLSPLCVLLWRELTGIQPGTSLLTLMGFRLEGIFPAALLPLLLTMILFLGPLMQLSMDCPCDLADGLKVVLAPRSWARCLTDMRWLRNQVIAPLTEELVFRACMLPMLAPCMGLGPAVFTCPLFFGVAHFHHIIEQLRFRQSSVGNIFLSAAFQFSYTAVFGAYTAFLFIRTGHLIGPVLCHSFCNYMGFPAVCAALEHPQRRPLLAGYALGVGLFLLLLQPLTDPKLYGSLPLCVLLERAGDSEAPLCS
# Chain of Mu-type opioid receptor (P35372 whole entry): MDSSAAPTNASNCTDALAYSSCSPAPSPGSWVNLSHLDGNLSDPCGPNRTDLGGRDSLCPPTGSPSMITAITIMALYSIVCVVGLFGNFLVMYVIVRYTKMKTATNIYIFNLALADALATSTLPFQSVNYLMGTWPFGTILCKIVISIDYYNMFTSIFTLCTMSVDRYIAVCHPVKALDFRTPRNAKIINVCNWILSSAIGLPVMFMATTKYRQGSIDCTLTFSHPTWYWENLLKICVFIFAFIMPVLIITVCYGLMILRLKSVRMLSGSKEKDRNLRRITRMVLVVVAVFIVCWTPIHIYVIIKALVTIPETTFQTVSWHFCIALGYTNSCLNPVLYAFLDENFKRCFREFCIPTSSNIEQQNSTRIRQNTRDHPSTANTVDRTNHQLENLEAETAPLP
# Chain of Genome polyprotein (P29990 2492-3391 limits assumed): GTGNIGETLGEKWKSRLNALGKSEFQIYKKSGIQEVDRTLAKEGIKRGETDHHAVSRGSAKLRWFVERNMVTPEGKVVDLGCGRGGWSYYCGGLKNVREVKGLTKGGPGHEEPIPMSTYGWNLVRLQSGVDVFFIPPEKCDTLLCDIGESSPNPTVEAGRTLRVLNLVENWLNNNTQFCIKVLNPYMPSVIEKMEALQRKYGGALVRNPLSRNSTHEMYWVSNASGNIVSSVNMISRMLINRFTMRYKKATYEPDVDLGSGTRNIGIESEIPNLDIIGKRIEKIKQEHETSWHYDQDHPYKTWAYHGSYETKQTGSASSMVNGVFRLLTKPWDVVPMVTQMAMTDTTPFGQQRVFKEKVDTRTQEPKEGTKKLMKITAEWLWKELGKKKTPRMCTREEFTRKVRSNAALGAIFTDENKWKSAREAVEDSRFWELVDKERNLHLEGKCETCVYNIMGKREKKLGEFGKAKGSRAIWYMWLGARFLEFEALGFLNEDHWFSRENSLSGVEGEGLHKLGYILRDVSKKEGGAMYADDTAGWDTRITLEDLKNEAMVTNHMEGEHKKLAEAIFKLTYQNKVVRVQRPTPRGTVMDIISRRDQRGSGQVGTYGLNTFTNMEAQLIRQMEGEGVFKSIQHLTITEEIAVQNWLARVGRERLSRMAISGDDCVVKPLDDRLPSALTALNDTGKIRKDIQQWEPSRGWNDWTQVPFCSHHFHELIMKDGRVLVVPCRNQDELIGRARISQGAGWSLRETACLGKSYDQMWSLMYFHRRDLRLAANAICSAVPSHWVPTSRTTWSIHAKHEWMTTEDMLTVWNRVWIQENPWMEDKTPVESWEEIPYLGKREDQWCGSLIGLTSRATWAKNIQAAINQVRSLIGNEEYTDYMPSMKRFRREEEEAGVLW
# Chain of Dual specificity protein phosphatase 3 (P51452 whole entry, the tested form may be a part): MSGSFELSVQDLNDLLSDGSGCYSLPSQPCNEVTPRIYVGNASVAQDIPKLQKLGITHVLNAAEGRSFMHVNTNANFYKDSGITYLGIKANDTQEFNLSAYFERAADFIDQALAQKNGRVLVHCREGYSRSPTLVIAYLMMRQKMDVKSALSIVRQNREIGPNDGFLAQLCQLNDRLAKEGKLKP
# Chain of Phospholipase A2 (P04054 whole entry): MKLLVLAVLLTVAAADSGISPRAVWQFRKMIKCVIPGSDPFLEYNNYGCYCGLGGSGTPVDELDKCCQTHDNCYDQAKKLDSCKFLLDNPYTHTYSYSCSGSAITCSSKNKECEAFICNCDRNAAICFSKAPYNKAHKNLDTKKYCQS
# Chain of Voltage-gated inwardly rectifying potassium channel KCNH2 (Q12809 whole entry): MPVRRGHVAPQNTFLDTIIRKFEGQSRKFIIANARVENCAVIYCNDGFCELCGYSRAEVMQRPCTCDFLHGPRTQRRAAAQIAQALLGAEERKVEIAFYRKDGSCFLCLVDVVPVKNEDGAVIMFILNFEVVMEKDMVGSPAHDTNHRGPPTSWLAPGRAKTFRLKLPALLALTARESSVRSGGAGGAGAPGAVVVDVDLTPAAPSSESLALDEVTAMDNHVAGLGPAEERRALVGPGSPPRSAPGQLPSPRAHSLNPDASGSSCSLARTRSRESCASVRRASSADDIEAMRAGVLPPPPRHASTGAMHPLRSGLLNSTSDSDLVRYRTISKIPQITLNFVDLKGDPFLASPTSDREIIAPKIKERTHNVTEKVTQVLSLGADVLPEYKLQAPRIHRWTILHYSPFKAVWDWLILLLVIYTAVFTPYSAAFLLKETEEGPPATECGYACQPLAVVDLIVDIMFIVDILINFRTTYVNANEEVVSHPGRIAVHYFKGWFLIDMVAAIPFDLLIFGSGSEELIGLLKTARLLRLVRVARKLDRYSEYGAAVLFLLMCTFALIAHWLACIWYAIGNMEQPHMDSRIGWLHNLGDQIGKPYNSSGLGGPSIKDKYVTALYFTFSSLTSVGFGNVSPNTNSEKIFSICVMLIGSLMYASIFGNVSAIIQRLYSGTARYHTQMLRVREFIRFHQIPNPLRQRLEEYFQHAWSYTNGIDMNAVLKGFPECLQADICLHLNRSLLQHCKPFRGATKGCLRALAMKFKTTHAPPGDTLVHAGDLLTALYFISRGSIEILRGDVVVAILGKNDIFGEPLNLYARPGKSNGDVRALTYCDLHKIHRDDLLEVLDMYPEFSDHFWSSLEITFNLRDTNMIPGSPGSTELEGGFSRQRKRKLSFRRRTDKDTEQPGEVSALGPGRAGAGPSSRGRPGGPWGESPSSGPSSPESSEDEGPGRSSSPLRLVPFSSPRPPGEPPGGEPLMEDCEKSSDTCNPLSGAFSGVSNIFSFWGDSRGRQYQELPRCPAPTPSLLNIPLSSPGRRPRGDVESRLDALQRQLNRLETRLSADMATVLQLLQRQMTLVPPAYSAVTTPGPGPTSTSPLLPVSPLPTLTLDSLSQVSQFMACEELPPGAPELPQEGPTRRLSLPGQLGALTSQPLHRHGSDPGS
# Chain of Hexokinase-1 (P19367 whole entry, the tested form may be a part): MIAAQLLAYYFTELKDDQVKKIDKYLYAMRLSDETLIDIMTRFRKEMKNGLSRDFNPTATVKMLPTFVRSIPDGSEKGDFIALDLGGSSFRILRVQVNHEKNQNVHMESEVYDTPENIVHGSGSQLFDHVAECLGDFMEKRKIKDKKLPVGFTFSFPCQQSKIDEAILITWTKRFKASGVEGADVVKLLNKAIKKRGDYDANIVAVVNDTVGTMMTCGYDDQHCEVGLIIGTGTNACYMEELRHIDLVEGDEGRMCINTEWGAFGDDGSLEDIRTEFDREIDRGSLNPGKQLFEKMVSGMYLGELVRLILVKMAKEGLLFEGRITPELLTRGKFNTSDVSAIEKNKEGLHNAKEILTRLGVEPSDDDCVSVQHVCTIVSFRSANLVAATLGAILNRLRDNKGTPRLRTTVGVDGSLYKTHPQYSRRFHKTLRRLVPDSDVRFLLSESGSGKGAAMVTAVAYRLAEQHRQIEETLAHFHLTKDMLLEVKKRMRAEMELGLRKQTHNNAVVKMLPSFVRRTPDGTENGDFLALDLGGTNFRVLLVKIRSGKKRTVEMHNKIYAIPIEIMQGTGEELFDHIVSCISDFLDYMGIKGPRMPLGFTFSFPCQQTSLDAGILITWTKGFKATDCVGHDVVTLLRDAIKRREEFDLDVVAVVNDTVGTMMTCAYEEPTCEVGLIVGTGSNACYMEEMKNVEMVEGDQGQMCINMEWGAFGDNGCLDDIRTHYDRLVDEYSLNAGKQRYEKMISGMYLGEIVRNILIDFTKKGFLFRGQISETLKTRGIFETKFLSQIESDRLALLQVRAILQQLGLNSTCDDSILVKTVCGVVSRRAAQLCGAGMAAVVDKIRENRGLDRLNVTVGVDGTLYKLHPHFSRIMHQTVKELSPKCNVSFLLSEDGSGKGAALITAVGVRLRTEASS
# Chain of 5-hydroxytryptamine receptor 5A (P47898 whole entry): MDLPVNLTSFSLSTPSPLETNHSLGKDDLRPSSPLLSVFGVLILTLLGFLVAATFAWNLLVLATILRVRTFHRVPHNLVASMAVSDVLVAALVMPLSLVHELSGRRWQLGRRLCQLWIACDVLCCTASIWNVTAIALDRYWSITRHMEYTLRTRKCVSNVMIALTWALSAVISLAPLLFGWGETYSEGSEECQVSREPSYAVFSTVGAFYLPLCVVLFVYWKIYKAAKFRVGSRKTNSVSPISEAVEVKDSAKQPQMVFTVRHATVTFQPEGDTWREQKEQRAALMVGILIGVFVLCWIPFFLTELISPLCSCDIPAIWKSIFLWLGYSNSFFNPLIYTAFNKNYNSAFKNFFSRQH
smiles,measurement,setting,value
CCN(Cc1ccccc1)S(=O)(=O)c1ccc(C(=O)N(CCCN(C)C)c2nc3c(C)c(C)ccc3s2)cc1,EC50,[1],78.9 µM (inactive)
same,EC50,[2],56.3 µM (inactive)
same,AC50,[3],18.9 µM (active)
same,EC50,[4],> 92.4 µM (inactive)
same,EC50,[5],5.55 µM (active)
same,EC50,[6],0.373 µM (active)
same,AC50,[7],11.6 µM (active)
c1ccc(P(c2ccccc2)c2ccccc2)cc1,AC50,[8],14.1 µM (inconclusive)
Cc1ccc(C(=O)NC(=S)Nc2ccccc2C(F)(F)F)cc1C,IC50,[9],6.91 µM (active)
same,IC50,[10],14.6 µM (active)
CCc1ccc(/C=C2/SC(=S)N(CCCC(=O)Nc3ccccc3C(=O)O)C2=O)cc1,IC50,[11],> 99 µM (inactive)
same,CC50,[12],> 40 µM (active)
same,EC50,[13],4.22 µM (active)
same,IC50,[14],31.4 µM (active)
same,EC50,[15],14 µM (inconclusive)
same,EC50,[16],4.17 µM (active)
O=C(c1ccc(Cl)cc1)N1CCN(c2ncccn2)CC1,AC50,[17],3.81 µM (active)
same,AC50,[18],17.6 µM (active)
same,AC50,[19],2.91 µM (active)
same,AC50,[20],0.57 µM (active)
COc1cccc2sc(Nc3nnc(-c4ccccc4)o3)nc12,IC50,[21],12 µM (active)
O=C(Nc1cccc(C(F)(F)F)c1)c1cccc(NC(=O)c2ccc3nccnc3c2)c1,IC50,[22],> 80 µM (inactive)
same,IC50,[23],> 80 µM (inactive)
CCC(C)(C)c1ccc(OCCCC[n+]2ccc(C)cc2)c(C(C)(C)CC)c1,CC50,[24],> 40 µM (active)
same,IC50,[25],12.6 µM (active)
same,IC50,[26],> 20 µM (inactive)
same,AC50,[27],1.26 µM (active)
same,EC50,[15],> 160 µM (inactive)
same,EC50,[16],0.344 µM (active)
same,IC50,[28],62.2 µM (inactive)
same,IC50,[29],> 20 µM (inactive)
same,IC50,[30],4.32 µM (active)
